Measured values taken from patent publication US20120255051A1, “HERBICIDE TOLERANT PLANTS” (priority 2009, published 2012).

Test system: Brassica plants comprising mutant AHAS alleles
Test: Field trial, pre-planting treatment (0, 10, 20, 30 g a.i./ha), two locations in Canada: ERG, EST1, EST2, PPTOX, VIG1, VIG2, VIG3 scores
Assay type: in vivo, Brassica napus
Description: Tests were set up and conducted to asses the growth and performance of plants comprising AHAS full knock-out alleles, and to further analyze the correlation between the presence of full knockout and missense AHAS genes in Brassica plants and plant growth and herbicide tolerance of the Brassica plants in the field. To this end, the Brassica plants identified in Example 1 and 2 were backcrossed two times with an elite parent line, and subsequently selfed twice to obtain homozygous plants (BC2S2). Plants were grown as row plots in a split plot design with three replicates (main plots=herbicide treatments, subplots=genotypes) at two locations in Canada. Treatment pre-planting was carried out on the soil about two days before sowing with a dose of 0 (treatment A), 10 (treatment B), 20 (treatment C) or 30 (treatment D) g a.i./ha of thiencarbazone methyl. Herbicide tolerance was measured by scoring for different parameters. The parameter emergence (ERG) was scored at the cotyledon stage on a scale 1-9, where 1 means late emergence and 9 means early emergence. Establishment was scored 14 days after sowing (EST1) and 21 days after sowing (EST2). Scores were from 1 to 9, where 1 is the worst establishment (least plants that emerged), and 9 is the best establishment (most plants emerged). Phytotoxicity (PPTOX) was determined after establishment. Plants were evaluated on a scale of 1 to 9, where 1=completely yellowing, 5=50% of plant is yellow and 9=no yellowing. The vigor scores (see above) were determined at 1-2 leaf stage (VIG1), 7 days after VIG1 (VIG2) and 14 days after VIG1 (VIG3). The average values (Av) and standard deviations (SD) of the scores for the different parameters are represented in Table 7a-g.
Further, the contribution of the knock-out allele to herbicide tolerance conferred by the missense allele was calculated. First, the scores were corrected for a possible effect of the growth per se, independent of herbicide treatment. To this end, the scores for treatments B, C and D were divided by the scores for treatment A for the same genotype and for the same parameter (corrected herbicide tolerance scores). Next, the effect of the knock-out allele to these corrected herbicide tolerance scores obtained by the missense allele was calculated. Therefore, the corrected herbicide tolerance scores for the missense—knock-out allele combination was divided by the corrected herbicide tolerance scores for the missense allele—wild-type combination. In case the knock-out allele has no effect on herbicide tolerance conferred by the missense allele, this ratio should be 1. In case the knock-out allele positively contributes to the herbicide tolerance conferred by the missense allele, this ratio should be higher than 1. The results for the contribution of the knock-out allele to herbicide tolerance conferred by the missense allele as calculated above are shown in table 8.

[1] = AHAS1 HETO112, AHAS3 WT, treatment C 20 g a.i./ha pre-planting, Location A
[2] = AHAS1 HETO112, AHAS3 WT, treatment C 20 g a.i./ha pre-planting, Location B
[3] = AHAS1 HETO112, AHAS3 WT, treatment D 30 g a.i./ha pre-planting, Location A
[4] = AHAS1 HETO112, AHAS3 WT, treatment D 30 g a.i./ha pre-planting, Location B
[5] = AHAS1 HETO112/AHAS3 HETO111, 10 g a.i./ha pre-planting (B), Location A
[6] = AHAS1 HETO112/AHAS3 HETO111, 10 g a.i./ha pre-planting (B), Location B
[7] = AHAS1 HETO112/AHAS3 HETO111, 20 g a.i./ha pre-planting (C), Location A
[8] = AHAS1 HETO112/AHAS3 HETO111, 20 g a.i./ha pre-planting (C), Location B
[9] = AHAS1 HETO112/AHAS3 HETO111, 30 g a.i./ha pre-planting (D), Location A
[10] = AHAS1 HETO112/AHAS3 HETO111, 30 g a.i./ha pre-planting (D), Location B
[11] = AHAS1 HETO112/AHAS3 WT, 10 g a.i./ha pre-planting (B), Location A
[12] = AHAS1 HETO112/AHAS3 WT, 10 g a.i./ha pre-planting (B), Location B
[13] = AHAS1 HETO112/AHAS3 WT, 20 g a.i./ha pre-planting (C), Location A
[14] = AHAS1 HETO112/AHAS3 WT, 20 g a.i./ha pre-planting (C), Location B
[15] = AHAS1 HETO112/AHAS3 WT, 30 g a.i./ha pre-planting (D), Location A
[16] = AHAS1 HETO112/AHAS3 WT, 30 g a.i./ha pre-planting (D), Location B
[17] = AHAS1 WT, AHAS3 HETO104, treatment B 10 g a.i./ha pre-planting, Location A
[18] = AHAS1 WT, AHAS3 HETO104, treatment B 10 g a.i./ha pre-planting, Location B
[19] = AHAS1 WT, AHAS3 HETO104, treatment C 20 g a.i./ha pre-planting, Location A
[20] = AHAS1 WT, AHAS3 HETO104, treatment C 20 g a.i./ha pre-planting, Location B
[21] = AHAS1 WT, AHAS3 HETO104, treatment D 30 g a.i./ha pre-planting, Location A
[22] = AHAS1 WT, AHAS3 HETO104, treatment D 30 g a.i./ha pre-planting, Location B

COC(=O)c1csc(C)c1S(=O)(=O)NC(=O)n1nc(OC)n(C)c1=O [thiencarbazone-methyl, methyl 4-[(4,5-dihydro-3-methoxy-4-methyl-5-oxo-1H-1,2,4-triazol-1-yl)carbonylsulfamoyl]-5-methylthiophene-3-carboxylate]
1.67: establishment (EST2) score, Av [11] | establishment (EST2) score, Av [14]
3.33: establishment (EST1) score Av, 14 days after sowing [18]
2.00: emergence (ERG) score Av [17] | emergence (ERG) score Av [18]
5.67: establishment (EST2) score, Av [5] | establishment (EST2) score, Av [6] | establishment (EST2) score, Av [9]
6.33: vigor1 (VIG1) score, Av [5] | vigor2 (VIG2) score, Av [7]
6.67: vigor2 (VIG2) score, Av [6] | vigor2 (VIG2) score, Av [9]
5.33: establishment (EST2) score, Av [7] | vigor2 (VIG2) score, Av [8] | vigor2 (VIG2) score, Av [10] | emergence (ERG) score Av (AHAS1 WT, AHAS3 HETO111 (HETO108+HETO111 series), treatment B 10 g a.i./ha pre-planting, Location A)
2.67: establishment (EST2) score, Av [12]
2.33: establishment (EST1) score Av, 14 days after sowing (AHAS1 HETO112, AHAS3 WT, treatment B 10 g a.i./ha pre-planting, Location B) | establishment (EST1) score Av, 14 days after sowing [17] | establishment (EST1) score Av, 14 days after sowing [20]
1.00: emergence (ERG) score Av [1] | establishment (EST1) score Av, 14 days after sowing [1] | emergence (ERG) score Av [2] | emergence (ERG) score Av [3] | establishment (EST1) score Av, 14 days after sowing [3] | emergence (ERG) score Av [4] | establishment (EST1) score Av, 14 days after sowing [4] | phytotoxicity (PPTOX) score, Av [11] | vigor1 (VIG1) score, Av [11] | vigor2 (VIG2) score, Av [11] | phytotoxicity (PPTOX) score, Av [12] | vigor2 (VIG2) score, Av [12] | establishment (EST2) score, Av [13] | phytotoxicity (PPTOX) score, Av [13] | vigor1 (VIG1) score, Av [13] | vigor2 (VIG2) score, Av [13] | phytotoxicity (PPTOX) score, Av [14] | vigor1 (VIG1) score, Av [14] | vigor2 (VIG2) score, Av [14] | establishment (EST2) score, Av [15] | phytotoxicity (PPTOX) score, Av [15] | vigor1 (VIG1) score, Av [15] | vigor2 (VIG2) score, Av [15] | establishment (EST2) score, Av [16] | phytotoxicity (PPTOX) score, Av [16] | vigor1 (VIG1) score, Av [16] | vigor2 (VIG2) score, Av [16] | emergence (ERG) score Av [19] | establishment (EST1) score Av, 14 days after sowing [19] | emergence (ERG) score Av [21] | establishment (EST1) score Av, 14 days after sowing [21] | emergence (ERG) score Av [22] | establishment (EST1) score Av, 14 days after sowing [22]
3.67: establishment (EST2) score, Av [10]
7.33: vigor2 (VIG2) score, Av [5]
4.00: vigor1 (VIG1) score, Av [10]
5.00: establishment (EST2) score, Av [8]
1.33: establishment (EST1) score Av, 14 days after sowing [2] | vigor1 (VIG1) score, Av [12] | emergence (ERG) score Av [20]
